Measured values: US9657263B2 (priority 2010, dated 2017)

What was measured:
[1] = tested on: influenza B virus; parameters: species or system BALB/c mice; settings: mouse, in vivo
[2] = tested on: influenza A virus; parameters: species or system BALB/c mice; settings: mouse, in vivo

With `CCOC(=O)C1=C[C@@H](OC(CC)CC)[C@H](NC(C)=O)[C@@H](N)C1` [Tamiflu, oseltamivir phosphate] the clinical symptoms [1] was “significant weight loss, cough, deem and messy hairs, decreased activity”, the survival rate [1] was 100% and the “death rate (FIG. 4a)” value [2] was 33%.
